Measurements as given in US20210380548A1, “Fused [1,2,4]Thiadiazine Derivatives Which Act as KAT Inhibitors of the MYST Family” (CTxT Pty Limited, priority 2017, published 2021).

What was measured:
QKF-KAT6B [1] = target: T1, QKF-KAT6B (Homo sapiens, UniProt Q8WYB5); assay: Revised Acetyltransferase Biochemical Assay, KAT6B; conditions: 8 nM KAT6B, 1 μM AcCoA, 100 nM histone H3.1, 90 min
T1 construct: purchased SignalChem K315-381BG
Text: KAT6B was obtained from SignalChem, catalog ID: K315-381BG

MOZ-KAT6A = target: T2, MOZ-KAT6A (Homo sapiens, UniProt Q92794, A567V); assay: Acetyltransferase biochemical assay (AlphaScreen), KAT6A; conditions: Table 2 (MOZ-KAT6A); 10 μM Acetyl coenzyme A, histone H3.1, 5 nM enzyme
T2 construct: encoding amino acid residues 507 to 778 (Uniprot Q92794-1) of human KAT6A; made in house; host or cells: E. coli BL21 DE3
T2 sequence (Q92794 507-778 A567V limits assumed): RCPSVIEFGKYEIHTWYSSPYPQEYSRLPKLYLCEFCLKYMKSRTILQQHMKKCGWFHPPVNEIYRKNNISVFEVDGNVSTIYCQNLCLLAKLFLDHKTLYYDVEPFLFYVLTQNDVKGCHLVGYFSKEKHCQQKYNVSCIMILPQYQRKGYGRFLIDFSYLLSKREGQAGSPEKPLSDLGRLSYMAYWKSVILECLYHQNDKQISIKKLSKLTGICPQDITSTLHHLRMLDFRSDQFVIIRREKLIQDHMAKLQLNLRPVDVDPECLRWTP

[2] = system: histone H3K23 acetylation (KATE mediated) in U2OS cells; assay: Histone H3 Lysine 23 Acetylation Biomarker Assay (U2OS); format: cell-based; conditions: Homo sapiens, 96 well, 24 hours incubation
Outline: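 U2OS cells were treated with compound for 24 h, then fixed and immunostained for H3K23ac with Hoechst nuclear counterstain. Per-nucleus Alexa647 intensity was quantified by high-content imaging and converted to % inhibition against DMSO and 10 μM reference-inhibitor controls. IC50 was derived from a four-parameter logistic fit.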

QKF-KAT6B [3] = target: T1, QKF-KAT6B; assay: Acetyltransferase biochemical assay (AlphaScreen), KAT6B; conditions: Table 5 (QKF-KAT6B); 0.4 μM Acetyl coenzyme A, histone H3.1, 8 nM enzyme

T1 sequence (Q8WYB5 whole entry): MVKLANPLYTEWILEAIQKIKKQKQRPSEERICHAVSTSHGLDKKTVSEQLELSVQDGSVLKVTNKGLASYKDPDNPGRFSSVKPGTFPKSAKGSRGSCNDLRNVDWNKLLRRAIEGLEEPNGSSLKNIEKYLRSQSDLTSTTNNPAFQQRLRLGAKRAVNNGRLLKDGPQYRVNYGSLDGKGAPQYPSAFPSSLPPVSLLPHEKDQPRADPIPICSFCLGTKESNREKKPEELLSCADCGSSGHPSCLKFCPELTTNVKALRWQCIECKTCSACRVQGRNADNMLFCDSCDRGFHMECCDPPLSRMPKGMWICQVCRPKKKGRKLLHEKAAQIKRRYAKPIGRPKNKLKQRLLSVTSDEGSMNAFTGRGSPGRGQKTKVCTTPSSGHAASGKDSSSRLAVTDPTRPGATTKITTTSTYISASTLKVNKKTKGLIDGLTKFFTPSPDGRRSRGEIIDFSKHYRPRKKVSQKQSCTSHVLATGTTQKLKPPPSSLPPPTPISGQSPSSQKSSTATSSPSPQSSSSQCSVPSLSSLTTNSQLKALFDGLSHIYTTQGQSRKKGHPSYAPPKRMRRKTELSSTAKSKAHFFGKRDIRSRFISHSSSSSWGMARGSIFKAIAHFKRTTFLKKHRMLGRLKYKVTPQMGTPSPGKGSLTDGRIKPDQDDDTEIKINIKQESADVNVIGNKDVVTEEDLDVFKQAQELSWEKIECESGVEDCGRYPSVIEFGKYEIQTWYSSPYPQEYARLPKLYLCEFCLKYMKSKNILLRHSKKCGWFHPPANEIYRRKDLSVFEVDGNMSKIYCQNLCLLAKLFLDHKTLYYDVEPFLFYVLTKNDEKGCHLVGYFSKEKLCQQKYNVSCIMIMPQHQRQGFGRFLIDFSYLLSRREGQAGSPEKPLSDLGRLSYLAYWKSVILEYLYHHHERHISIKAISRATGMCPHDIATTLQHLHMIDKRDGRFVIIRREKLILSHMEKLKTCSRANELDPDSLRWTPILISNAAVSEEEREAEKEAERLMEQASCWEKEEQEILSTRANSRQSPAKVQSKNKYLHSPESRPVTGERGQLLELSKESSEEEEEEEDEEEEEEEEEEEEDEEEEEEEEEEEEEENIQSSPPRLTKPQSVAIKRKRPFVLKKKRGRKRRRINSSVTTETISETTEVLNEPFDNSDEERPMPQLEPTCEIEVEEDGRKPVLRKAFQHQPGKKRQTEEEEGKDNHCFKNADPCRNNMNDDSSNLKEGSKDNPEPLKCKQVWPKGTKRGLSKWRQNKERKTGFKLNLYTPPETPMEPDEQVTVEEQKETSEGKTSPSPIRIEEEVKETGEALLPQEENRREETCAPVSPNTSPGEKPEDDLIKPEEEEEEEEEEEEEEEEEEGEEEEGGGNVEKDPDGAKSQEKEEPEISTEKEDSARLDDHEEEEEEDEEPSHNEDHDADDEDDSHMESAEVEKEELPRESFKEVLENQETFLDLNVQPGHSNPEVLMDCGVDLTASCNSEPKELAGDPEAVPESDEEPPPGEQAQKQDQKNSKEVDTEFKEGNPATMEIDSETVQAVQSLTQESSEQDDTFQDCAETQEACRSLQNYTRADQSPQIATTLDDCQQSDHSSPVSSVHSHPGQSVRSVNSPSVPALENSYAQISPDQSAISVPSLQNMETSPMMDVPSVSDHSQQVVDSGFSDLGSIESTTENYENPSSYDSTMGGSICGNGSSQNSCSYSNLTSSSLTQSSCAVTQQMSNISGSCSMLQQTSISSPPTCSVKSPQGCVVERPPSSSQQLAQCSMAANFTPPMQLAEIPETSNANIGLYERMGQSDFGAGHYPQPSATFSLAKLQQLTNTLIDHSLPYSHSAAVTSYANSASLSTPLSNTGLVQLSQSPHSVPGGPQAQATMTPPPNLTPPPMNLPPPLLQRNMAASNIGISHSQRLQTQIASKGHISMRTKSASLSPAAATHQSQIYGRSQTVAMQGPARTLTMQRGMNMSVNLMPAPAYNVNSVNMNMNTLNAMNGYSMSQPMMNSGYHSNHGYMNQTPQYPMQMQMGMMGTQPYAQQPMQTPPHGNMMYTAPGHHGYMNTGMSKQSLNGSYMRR

IC50 (QKF-KAT6B [1]) [nM]	IC50 (MOZ-KAT6A) [nM]	IC50 [2] [nM]	IC50 (QKF-KAT6B [3]) [nM]	SMILES
60	24.1	64	–	O=C(NCC(c1ccccc1)c1ncco1)C1=Nc2ccc(Br)cc2S(=O)(=O)N1 (stereo not drawn) [Example 1, 7-Bromo-N-(2-(oxazol-2-yl)-2-phenylethyl)-2H-benzo[e][1,2,4]thiadiazine-3-carboxamide 1,1-dioxide]
589	324	178	122	O=C(NCC(c1ccccc1)c1ncco1)C1=Nc2ccccc2S(=O)(=O)N1 (stereo not drawn) [Example 46, N-(2-(oxazol-2-yl)-2-phenylethyl)-2H-benzo[e][1,2,4]thiadiazine-3-carboxamide 1,1-dioxide]
39	–	1420	–	O=C(NCCc1ccccc1-n1nccn1)C1=Nc2ccc(I)cc2S(=O)(=O)N1 [Example 60, N-(2-(2H-1,2,3-triazol-2-yl)phenethyl)-7-iodo-2H-benzo[e][1,2,4]thiadiazine-3-carboxamide 1,1-dioxide]
350	594	7690	–	O=C(NCCc1ccccc1OC(F)F)C1=Nc2ccc(I)cc2S(=O)(=O)N1 [Example 91]
